The text below walks through data of US20060135798A1, “2-Methylene-19-nor-(20S)-1alpha-hydroxy-trishomopregnacalciferol” (Wisconsin Alumni Research Foundation, priority 2004, published 2006).

Series [1] is described as follows: Bone calcium mobilization (serum calcium on low calcium diet). It counts as in vivo, rat. The note with it: rats, ip, even at 2340 pmol/day; FIG. 4. On the procedure: (§1) Male, weanling Sprague-Dawley rats were placed on Diet 11 (0.47% Ca) diet +AEK for one week followed by Diet 11 (0.02% Ca) +AEK for 3 weeks. The rats were then switched to a diet containing 0.47% Ca for one week followed by two weeks on a diet containing 0.02% Ca. Dose administration began during the last week on 0.02% calcium diet. Four consecutive ip doses were given approximately 24 hours apart. Twenty-four hours after the last dose, blood was collected from the severed neck and the concentration of serum calcium determined as a measure of bone calcium mobilization. The first 10 cm of the intestine was also collected for intestinal calcium transport analysis using the everted gut sac method.

A short description of series [2]: Intestinal calcium transport (everted gut sac method). Type of series: in vivo, rat. The note with it: rats, ip; FIG. 5. On the procedure: as §1
Series [3] has as its system parathyroid hormone (PTH). Briefly: PTH suppression in adult rats. Type of series: in vivo, rat. The note with it: ip, 7 consecutive days. On the procedure: (§2) Adult, female Sprague-Dawley rats were obtained from Harlan (Madison, Wis.).
(§3) Upon receipt, the animals were identified by individual tail marks. Animals were housed in suspended, stainless steel, wire-bottom cages. Each cage contained one animal. The animal rooms were maintained at a temperature of 68 to 72° F. and a relative humidity of 25 to 75%. The holding rooms were set to provide 12 hours of light per day. Water and a purified rodent diet (Suda et al., Purified Rodent Diet-Diet 11) containing […] 0.3% phosphorus and fat soluble vitamins A, D, E and K were provided ad libitum.
(§4) Animals were randomly assigned to treatment groups (5 animals/group). All doses were administered intraperitoneally in 100 microliters of propylene glycol. Four to seven consecutive doses were given approximately 24 hours apart. Dosing was initiated after the animals had been allowed to acclimate for at least one week.
Both control and test articles were administered by intraperitoneal injection in 100 microliters for 4-7 consecutive days spaced approximately 24 hours apart. 1,25(OH)2D3 was given for 4 consecutive days, whereas, the test drugs were given for 7 consecutive days.
Twenty-four hours after the final dose, blood was collected from the tail artery and the concentration of bioactive serum PTH was measured using the rat BioActive Intact PTH ELISA Kit from Immutopics, Inc. (San Clemente, Calif.).

A short description of series [4]: Hypercalcemia: serum calcium in adult rats. It counts as in vivo, rat. The note with it: ip, 7 consecutive days. How it is done: as §2, §3, §4
Both control and test articles were administered by intraperitoneal injection in 100 microliters for 4-7 consecutive days spaced approximately 24 hours apart. […]
Twenty-four hours after the final dose, approximately 1 ml of blood was collected from the tail artery of each experimental animal. […] The level of calcium was determined by diluting the serum into 0.1% lanthum chloride and measuring the absorbance on an atomic absorption spectrophotometer (Perkin Elmer Model 3110, Shelton, Conn.).

Another series relates to HL-60 cells. As to the kind of experiment: HL-60 differentiation (nitro blue tetrazolium reduction). Type of series: cell-based, human. To be noted: compared with 1,25-(OH)2D3; FIG. 2. How it is done:
The study drugs were dissolved in ethanol and the concentrations determined using UV spectrophotometry. Serial dilutions were prepared so that a range of drug concentrations could be tested without changing the final concentration of ethanol (≦0.2%) present in the cell cultures.
Human promyelocytic leukemia (HL60) cells were grown in RPMI-1640 medium containing 10% fetal bovine serum. The cells were incubated at 37° C. in the presence of 5% CO2.
HL60 cells were plated at 1.2×10^5 cells/ml. Eighteen hours after plating, cells in duplicate were treated with drug. Four days later, the cells were harvested and a nitro blue tetrazolium reduction assay was performed (Collins et al., 1979; J. Exp. Med. 149:969-974). The percentage of differentiated cells was determined by counting a total of 200 cells and recording the number that contained intracellular black-blue formazan deposits. Verification of differentiation to monocytic cells was determined by measuring phagocytic activity (data not shown).

Series [5] concerns the target T1, full-length recombinant rat vitamin D receptor (Rattus norvegicus, UniProt P13053).
T1 construct: Full-length recombinant rat receptor was expressed in E. coli BL21(DE3) Codon Plus RIL cells; histidine tag (C); made in house; host or cells: E. coli BL21(DE3) Codon Plus RIL
T1 sequence (P13053 1-423): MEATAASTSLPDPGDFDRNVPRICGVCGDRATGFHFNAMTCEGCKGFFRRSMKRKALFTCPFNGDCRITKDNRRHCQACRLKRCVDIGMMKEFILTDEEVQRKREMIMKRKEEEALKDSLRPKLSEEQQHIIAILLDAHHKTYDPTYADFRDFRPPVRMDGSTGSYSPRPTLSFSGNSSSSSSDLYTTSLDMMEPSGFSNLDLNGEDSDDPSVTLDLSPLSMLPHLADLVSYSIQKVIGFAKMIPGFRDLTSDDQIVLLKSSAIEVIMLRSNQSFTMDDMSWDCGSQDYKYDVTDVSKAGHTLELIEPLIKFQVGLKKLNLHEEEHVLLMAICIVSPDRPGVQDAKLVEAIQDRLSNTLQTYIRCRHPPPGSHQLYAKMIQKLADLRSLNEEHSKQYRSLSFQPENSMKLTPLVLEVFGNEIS
Briefly: Vitamin D receptor binding, competition with [3H]-1,25-(OH)2-D3. The note with it: compared with 1,25(OH)2D3; FIG. 1. On the procedure: Full-length recombinant rat receptor was expressed in E. coli BL21(DE3) Codon Plus RIL cells and purified to homogeneity using two different column chromatography systems. The first system was a nickel affinity resin that utilizes the C-terminal histidine tag on this protein. The protein that was eluted from this resin was further purified using ion exchange chromatography (S-Sepharose Fast Flow). Aliquots of the purified protein were quick frozen in liquid nitrogen and stored at −80° C. until use. For use in binding assays, the protein was diluted in TEDK50 (50 mM Tris, 1.5 mM EDTA, pH 7.4, 5 mM DTT, 150 mM KCl) with 0.1% Chaps detergent. The receptor protein and ligand concentration was optimized such that no more than 20% of the added radiolabeled ligand was bound to the receptor.
Unlabeled ligands were dissolved in ethanol and the concentrations determined using UV spectrophotometry (1,25(OH)2D3: molar extinction coefficient=18,200 and λmax=265 nm; Analogs: molar extinction coefficient=42,000 and λmax=252 nm). Radiolabeled ligand (^3H-1,25(OH)2D3, ˜159 Ci/mmole) was added in ethanol at a final concentration of 1 nM.
Radiolabeled and unlabeled ligands were added to 100 mcl of the diluted protein at a final ethanol concentration of ≦10%, mixed and incubated overnight on ice to reach binding equilibrium. […] Total binding was determined from the tubes containing only radiolabeled ligand.

Series [6] deals with 24-hydroxylase (24Ohase) gene promoter. Briefly: In vitro transcription assay (24-hydroxylase promoter luciferase reporter in ROS 17/2.8 cells). It counts as cell-based. To be noted: compared with 1,25-(OH)2D3; FIG. 3. On the procedure:
Transcription activity was measured in ROS 17/2.8 (bone) cells that were stably transfected with a 24-hydroxylase (24Ohase) gene promoter upstream of a luciferase reporter gene (Arbour et al., 1998). Cells were given a range of doses. Sixteen hours after dosing the cells were harvested and luciferase activities were measured using a luminometer. RLU=relative luciferase units.
For orientation: Reporter assays use an easily measured gene product as a stand-in for the process of interest.

As to `C=C1[C@H](O)CC(=C/C=C2\CCC[C@]3(C)C([C@@H](C)CCC)CC[C@@H]23)C[C@H]1O` (stereo in doubt) [2-Methylene-19-nor-(20S)-1α-hydroxy-trishomopregnacalciferol], the “bone calcium mobilizing activity” value in series [1] is “little bone calcium mobilizing activity”. In series [2], the intestinal calcium transport result was “retain some ability to elevate intestinal calcium transport”. In series [3], the “suppression of parathyroid hormone” value is “remarkably effective in suppressing parathyroid hormone”. The serum calcium concentrations entry in series [4] is on record as “not raising serum calcium concentrations”. Further, in the series on HL-60 cells, the “activity in inducing differentiation of HL-60 cells” value is listed as “equal in activity to 1,25-(OH)2D3”. For the same molecule, the “binding to the vitamin D receptor relative to the native hormone” value in series [5] is reported as “almost equal to the native hormone”. Besides, the transcription activity entry in series [6] is “within one order of magnitude of the activity of 1,25-(OH)2D3”.
